# In ChEMBL document CHEMBL3862012, “Methylene versus carbonyl bridge in the structure of new tubulin polymerization inhibitors with tricyclic A-rings” (Bioorg Med Chem, 2016):
# Legend:
# Format in all cases: functional
# [1] = Cytotoxicity against human MDA-MB-231 cells assessed as growth inhibition at 10 uM after 48 hrs by SRB assay relative to control; details: MDA-MB-231, 48 h, read-out: GI
# [2] = Cytotoxicity against human U251 cells assessed as growth inhibition after 48 hrs by SRB assay; details: U-251, 48 h
# [3] = Cytotoxicity against human BT549 cells assessed as growth inhibition after 48 hrs by SRB assay; details: BT-549, 48 h
# [4] = Cytotoxicity against human NCI-H226 cells assessed as growth inhibition at 10 uM after 48 hrs by SRB assay relative to control; details: NCI-H226, 48 h, read-out: GI
# [5] = Cytotoxicity against human OVCAR8 cells assessed as growth inhibition at 10 uM after 48 hrs by SRB assay relative to control; details: OVCAR-8, 48 h, read-out: GI
# [6] = Cytotoxicity against human SR cells assessed as growth inhibition at 10 uM after 48 hrs by SRB assay relative to control; details: read-out: GI
# [7] = Cytotoxicity against human SK-MEL-2 cells assessed as growth inhibition after 48 hrs by SRB assay; details: SK-MEL-2, 48 h
# [8] = Cytotoxicity against human Caki1 cells assessed as growth inhibition after 48 hrs by SRB assay; details: CAKI-1, 48 h
# [9] = Cytotoxicity against human SF539 cells assessed as growth inhibition at 10 uM after 48 hrs by SRB assay relative to control; details: SF-539, 48 h, read-out: GI
# [10] = Cytotoxicity against human SK-MEL-5 cells assessed as growth inhibition after 48 hrs by SRB assay; details: SK-MEL-5, 48 h
# [11] = Cytotoxicity against human HCC2998 cells assessed as growth inhibition after 48 hrs by SRB assay; details: HCC 2998, 48 h
# [12] = Cytotoxicity against human SW620 cells assessed as growth inhibition after 48 hrs by SRB assay; details: SW-620, 48 h
# [13] = Cytotoxicity against human HOP92 cells assessed as growth inhibition at 10 uM after 48 hrs by SRB assay relative to control; details: HOP-92, 48 h, read-out: GI
# [14] = Cytotoxicity against human SKOV3 cells assessed as growth inhibition at 10 uM after 48 hrs by SRB assay relative to control; details: SK-OV-3, 48 h, read-out: GI
# [15] = Cytotoxicity against human COLO205 cells assessed as growth inhibition after 48 hrs by SRB assay; details: COLO 205, 48 h
# [16] = Cytotoxicity against human IGROV1 cells assessed as growth inhibition at 10 uM after 48 hrs by SRB assay relative to control; details: IGROV-1, 48 h, read-out: GI
# [17] = Cytotoxicity against human SF295 cells assessed as growth inhibition at 10 uM after 48 hrs by SRB assay relative to control; details: SF-295, 48 h, read-out: GI
# [18] = Cytotoxicity against human OVCAR5 cells assessed as growth inhibition after 48 hrs by SRB assay; details: OVCAR-5, 48 h
# [19] = Cytotoxicity against human K562 cells assessed as growth inhibition after 48 hrs by SRB assay; details: K562, 48 h
# [20] = Cytotoxicity against human HCT116 cells assessed as growth inhibition after 48 hrs by SRB assay; details: HCT-116, 48 h
# [21] = Cytotoxicity against human CCRF-CEM cells assessed as growth inhibition after 48 hrs by SRB assay
# [22] = Cytotoxicity against human Caki1 cells assessed as growth inhibition at 10 uM after 48 hrs by SRB assay relative to control; details: CAKI-1, 48 h, read-out: GI
# [23] = Cytotoxicity against human HL-60(TB) cells assessed as growth inhibition after 48 hrs by SRB assay; details: HL-60, 48 h
# [24] = Cytotoxicity against human TK10 cells assessed as growth inhibition at 10 uM after 48 hrs by SRB assay relative to control; details: TK-10, 48 h, read-out: GI
# [25] = Cytotoxicity against human SF295 cells assessed as growth inhibition after 48 hrs by SRB assay; details: SF-295, 48 h
# [26] = Cytotoxicity against human NCI-ADR-RES cells assessed as growth inhibition after 48 hrs by SRB assay
# [27] = Cytotoxicity against human NCI-H460 cells assessed as growth inhibition after 48 hrs by SRB assay; details: NCI-H460, 48 h
# [28] = Cytotoxicity against human HOP62 cells assessed as growth inhibition at 10 uM after 48 hrs by SRB assay relative to control; details: HOP-62, 48 h, read-out: GI
# [29] = Cytotoxicity against human Hs 578T cells assessed as growth inhibition after 48 hrs by SRB assay
# [30] = Cytotoxicity against human HT-29 cells assessed as growth inhibition after 48 hrs by SRB assay; details: HT-29, 48 h
# [31] = Cytotoxicity against human M14 cells assessed as growth inhibition after 48 hrs by SRB assay; details: M14, 48 h
# [32] = Cytotoxicity against human 786-0 cells assessed as growth inhibition after 48 hrs by SRB assay; details: 786-0, 48 h
# [33] = Cytotoxicity against human NCI-H522 cells assessed as growth inhibition after 48 hrs by SRB assay; details: NCI-H522, 48 h
# [34] = Cytotoxicity against human DU145 cells assessed as growth inhibition at 10 uM after 48 hrs by SRB assay relative to control; details: DU-145, 48 h, read-out: GI
# [35] = Cytotoxicity against human LOXIMVI cells assessed as growth inhibition at 10 uM after 48 hrs by SRB assay relative to control; details: LOX IMVI, read-out: GI
# [36] = Cytotoxicity against human BT549 cells assessed as growth inhibition at 10 uM after 48 hrs by SRB assay relative to control; details: BT-549, 48 h, read-out: GI
# [37] = Cytotoxicity against human HCT15 cells assessed as growth inhibition after 48 hrs by SRB assay; details: HCT-15, 48 h
# [38] = Cytotoxicity against human SNB75 cells assessed as growth inhibition at 10 uM after 48 hrs by SRB assay relative to control; details: SNB-75, 48 h, read-out: GI
# [39] = Cytotoxicity against human A498 cells assessed as growth inhibition at 10 uM after 48 hrs by SRB assay relative to control; details: A498, 48 h, read-out: GI
# [40] = Cytotoxicity against human MOLT4 cells assessed as growth inhibition after 48 hrs by SRB assay; details: MOLT-4, 48 h
# [41] = Cytotoxicity against human SK-MEL-28 cells assessed as growth inhibition at 10 uM after 48 hrs by SRB assay relative to control; details: SK-MEL-28, 48 h, read-out: GI
# [42] = Cytotoxicity against human KM12 cells assessed as growth inhibition after 48 hrs by SRB assay; details: KM12, 48 h
# [43] = Cytotoxicity against human SK-MEL-5 cells assessed as growth inhibition at 10 uM after 48 hrs by SRB assay relative to control; details: SK-MEL-5, 48 h, read-out: GI
smiles,measurement,setting,value
COc1ccc(CN2c3ccccc3Sc3ccccc32)cc1O,inhibition of growth at 10 µM,[1],59%
same,GI50,[2],427 nM
same,GI50,[3],773 nM
same,inhibition of growth at 10 µM,[4],29%
same,inhibition of growth at 10 µM,[5],78%
same,inhibition of growth at 10 µM,[6],84%
same,GI50,[7],333 nM
same,GI50,[8],472 nM
same,inhibition of growth at 10 µM,[9],100%
same,GI50,[10],438 nM
same,GI50,[11],422 nM
same,GI50,[12],504 nM
same,inhibition of growth at 10 µM,[13],50%
same,inhibition of growth at 10 µM,[14],71%
same,GI50,[15],789 nM
same,inhibition of growth at 10 µM,[16],70%
same,inhibition of growth at 10 µM,[17],96%
same,GI50,[18],12700 nM
same,GI50,[19],365 nM
same,GI50,[20],386 nM
same,GI50,[21],411 nM
same,inhibition of growth at 10 µM,[22],64%
same,GI50,[23],257 nM
same,inhibition of growth at 10 µM,[24],42%
same,GI50,[25],225 nM
same,GI50,[26],291 nM
same,GI50,[27],444 nM
same,inhibition of growth at 10 µM,[28],64%
same,GI50,[29],933 nM
same,GI50,[30],724 nM
same,GI50,[31],383 nM
same,GI50,[32],838 nM
same,GI50,[33],241 nM
same,inhibition of growth at 10 µM,[34],82%
same,inhibition of growth at 10 µM,[35],57%
same,inhibition of growth at 10 µM,[36],45%
same,GI50,[37],369 nM
same,inhibition of growth at 10 µM,[38],73%
same,inhibition of growth at 10 µM,[39],24%
same,GI50,[40],642 nM
COc1ccc(CN2c3ccccc3Sc3ccccc32)cc1F,inhibition of growth at 10 µM,[1],76%
same,GI50,[2],529 nM
same,GI50,[3],562 nM
same,inhibition of growth at 10 µM,[4],44%
same,inhibition of growth at 10 µM,[5],76%
same,inhibition of growth at 10 µM,[6],83%
same,inhibition of growth at 10 µM,[41],43%
same,GI50,[42],419 nM
same,GI50,[7],405 nM
same,GI50,[8],386 nM
same,inhibition of growth at 10 µM,[43],78%
same,inhibition of growth at 10 µM,[9],100%
same,GI50,[10],488 nM
same,GI50,[11],1130 nM
same,GI50,[12],384 nM
same,inhibition of growth at 10 µM,[13],50%
same,inhibition of growth at 10 µM,[14],83%
same,GI50,[15],299 nM
same,inhibition of growth at 10 µM,[16],64%
same,inhibition of growth at 10 µM,[17],88%
same,GI50,[19],369 nM
same,GI50,[20],377 nM
same,GI50,[21],428 nM
same,inhibition of growth at 10 µM,[22],46%
same,GI50,[23],262 nM
same,inhibition of growth at 10 µM,[24],53%
same,GI50,[25],333 nM
same,GI50,[26],326 nM
same,GI50,[27],389 nM
same,inhibition of growth at 10 µM,[28],80%
same,GI50,[29],459 nM
same,GI50,[30],331 nM
same,GI50,[31],317 nM
same,GI50,[32],579 nM
same,GI50,[33],300 nM
same,inhibition of growth at 10 µM,[34],86%
same,inhibition of growth at 10 µM,[35],60%
same,inhibition of growth at 10 µM,[36],50%
same,GI50,[37],437 nM
same,inhibition of growth at 10 µM,[38],55%
same,inhibition of growth at 10 µM,[39],100%
same,GI50,[40],468 nM
